Values after ≈ are worked out from the molar mass of the structure shown.
Tests used:
[1] = Cytotoxicity against human HeLa cells assessed as cell viability at 30 uM after 48 hrs by MTT assay; format: cell-based; settings: read-out: Activity
[2] = Cytotoxicity against human HuH7 cells assessed as cell viability at 30 uM after 48 hrs by MTT assay; format: cell-based, Huh-7; settings: read-out: Activity
[3] = Cytotoxicity against human HepG2 cells assessed as cell viability at 30 uM after 48 hrs by MTT assay; format: cell-based; settings: read-out: Activity
[4] = Cytotoxicity against MDCK2 cells assessed as cell viability at 30 uM after 48 hrs by MTT assay; format: cell-based, Canis lupus familiaris, MDCK-II; settings: dog, read-out: Activity
HeLa = assay: Cytotoxicity against human HeLa cells assessed as reduction in cell viability after 48 hrs by MTT assay; format: cell-based
[5] = Cytotoxicity against human HuH7 cells assessed as reduction in cell viability after 48 hrs by MTT assay; format: cell-based; settings: Huh-7, 48 h
[6] = Cytotoxicity against MDCK2 cells assessed as reduction in cell viability after 48 hrs by MTT assay; format: cell-based; settings: Canis lupus familiaris, MDCK-II
HepG2 = assay: Cytotoxicity against human HepG2 cells assessed as reduction in cell viability after 48 hrs by MTT assay; format: cell-based; settings: HepG2, 48 h
[7] = test system: Mycobacterium tuberculosis; assay: Antimycobacterial activity against Mycobacterium tuberculosis CNCTC My 331/88 after 14 days by micromethod; format: functional; settings: CNCTC My 331/88, 336 h
[8] = test system: Mycobacterium tuberculosis; assay: Antimycobacterial activity against Mycobacterium tuberculosis CNCTC My 331/88 after 21 days by micromethod; format: functional; settings: CNCTC My 331/88, 504 h
Mycobacterium avium [9] = assay: Antimycobacterial activity against Mycobacterium avium CNCTC My 330/88 after 14 days by micromethod; format: functional; settings: CNCTC My 330/88, 336 h
Mycobacterium avium [10] = assay: Antimycobacterial activity against Mycobacterium avium CNCTC My 330/88 after 21 days by micromethod; format: functional; settings: CNCTC My 330/88, 504 h
Mycobacterium kansasii [11] = assay: Antimycobacterial activity against Mycobacterium kansasii CNCTC My 235/80 after 7 days by micromethod; format: functional; settings: CNCTC My 235/80, 168 h
Mycobacterium kansasii [12] = assay: Antimycobacterial activity against Mycobacterium kansasii CNCTC My 235/80 after 14 days by micromethod; format: functional; settings: CNCTC My 235/80, 336 h
Mycobacterium kansasii [13] = assay: Antimycobacterial activity against Mycobacterium kansasii CNCTC My 235/80 after 21 days by micromethod; format: functional; settings: CNCTC My 235/80, 504 h
Mycobacterium kansasii [14] = assay: Antimycobacterial activity against Mycobacterium kansasii 6509/96 after 7 days by micromethod; format: functional; settings: 6509/96, 168 h
Mycobacterium kansasii [15] = assay: Antimycobacterial activity against Mycobacterium kansasii 6509/96 after 14 days by micromethod; format: functional; settings: 6509/96, 336 h
Mycobacterium kansasii [16] = assay: Antimycobacterial activity against Mycobacterium kansasii 6509/96 after 21 days by micromethod; format: functional; settings: 6509/96, 504 h
Escherichia coli = assay: Antibacterial activity against Escherichia coli ATCC 8739 after 24 hrs by broth microdilution method; format: functional
Klebsiella pneumoniae [17] = assay: Antibacterial activity against Klebsiella pneumoniae D 11750/08 after 24 hrs by broth microdilution method; format: functional
Klebsiella pneumoniae [18] = assay: Antibacterial activity against extended spectrum beta-lactamase producing Klebsiella pneumoniae J 14368/08 after 24 hrs by broth microdilution method; format: functional
Pseudomonas aeruginosa = assay: Antibacterial activity against Pseudomonas aeruginosa ATCC 9027 after 24 hrs by broth microdilution method; format: functional
Candida albicans = assay: Antifungal activity against Candida albicans ATCC 44859 after 24 hrs by broth microdilution method; format: functional; settings: ATCC 44859, 24 h
Candida tropicalis = assay: Antifungal activity against Candida tropicalis 156 after 24 hrs by broth microdilution method; format: functional; settings: Candida tropicalis, 156, 24 h
Pichia kudriavzevii = assay: Antifungal activity against Candida krusei E28 after 24 hrs by broth microdilution method; format: functional; settings: E28, 24 h
Trichosporon asahii = assay: Antifungal activity against Trichosporon asahii 1188 after 24 hrs by broth microdilution method; format: functional; settings: Trichosporon asahii, 1188, 24 h
Aspergillus fumigatus = assay: Antifungal activity against Aspergillus fumigatus 231 after 24 hrs by broth microdilution method; format: functional, organism-based; settings: Aspergillus fumigatus, 231, 24 h
Lichtheimia corymbifera = assay: Antifungal activity against Absidia corymbifera 272 after 24 hrs by broth microdilution method; format: functional, organism-based; settings: Lichtheimia corymbifera, 272, 24 h
[19] = test system: Trichophyton mentagrophytes; assay: Antifungal activity against Trichophyton mentagrophytes 445 after 72 hrs by broth microdilution method; format: functional, organism-based; settings: Trichophyton mentagrophytes, 445, 72 h

| Molecule | viability at 48 h, 30 µM [1] [%] | viability at 48 h, 30 µM [2] [%] | viability at 48 h, 30 µM [3] [%] | viability at 48 h, 30 µM [4] [%] | IC50 (HeLa) [µM] | IC50 [5] [µM] | IC50 [6] [µM] | IC50 (HepG2) [µM] | MIC [7] [µM] | MIC [8] [µM] | MIC (Mycobacterium avium [9]) [µM] | MIC (Mycobacterium avium [10]) [µM] | MIC (Mycobacterium kansasii [11]) [µM] | MIC (Mycobacterium kansasii [12]) [µM] | MIC (Mycobacterium kansasii [13]) [µM] | MIC (Mycobacterium kansasii [14]) [µM] | MIC (Mycobacterium kansasii [15]) [µM] | MIC (Mycobacterium kansasii [16]) [µM] | further results |
| --- | --- | --- | --- | --- | --- | --- | --- | --- | --- | --- | --- | --- | --- | --- | --- | --- | --- | --- | --- |
| COc1ccc(-n2nnnc2[Se]Cc2cc([N+](=O)[O-])cc([N+](=O)[O-])c2)cc1 | 78 | 72 | 17 | 9 | > 30 | > 30 | < 7.5 | 19 | 1 (≈ 0.435 µg/mL) | 1 (≈ 0.435 µg/mL) | 32 (≈ 13.9 µg/mL) | 32 (≈ 13.9 µg/mL) | 1 (≈ 0.435 µg/mL) | 2 (≈ 0.871 µg/mL) | 2 (≈ 0.871 µg/mL) | 2 (≈ 0.871 µg/mL) | 4 (≈ 1.74 µg/mL) | 8 (≈ 3.48 µg/mL) | – |
| O=[N+]([O-])c1ccc(CSc2nnnn2C2CCCCC2)c([N+](=O)[O-])c1 | 61 | 97 | 47 | 28 | > 30 | > 30 | 17 | 16 | 8 (≈ 2.92 µg/mL) | 16 (≈ 5.83 µg/mL) | 16 (≈ 5.83 µg/mL) | 32 (≈ 11.7 µg/mL) | 4 (≈ 1.46 µg/mL) | 8 (≈ 2.92 µg/mL) | 16 (≈ 5.83 µg/mL) | 16 (≈ 5.83 µg/mL) | 62 (≈ 22.6 µg/mL) | 62 (≈ 22.6 µg/mL) | – |
| GENTAMICIN | – | – | – | – | – | – | – | – | – | – | – | – | – | – | – | – | – | – | IC95 (Escherichia coli): 0.26 µM; IC95 (Klebsiella pneumoniae [17]): 0.26 µM; IC95 (Klebsiella pneumoniae [18]): 0.26 µM; IC95 (Pseudomonas aeruginosa): 1 µM |
| O=[N+]([O-])c1cc(COc2nnnn2-c2ccc(Cl)c(Cl)c2)cc([N+](=O)[O-])c1 | 69 | 111 | 27 | 22 | > 30 | > 30 | 22 | 25 | 4 (≈ 1.64 µg/mL) | 4 (≈ 1.64 µg/mL) | 32 (≈ 13.2 µg/mL) | 62 (≈ 25.5 µg/mL) | 4 (≈ 1.64 µg/mL) | 16 (≈ 6.58 µg/mL) | 32 (≈ 13.2 µg/mL) | 4 (≈ 1.64 µg/mL) | 16 (≈ 6.58 µg/mL) | 32 (≈ 13.2 µg/mL) | – |
| OC(Cn1cncn1)(Cn1cncn1)c1ccc(F)cc1F [FLUCONAZOLE] | – | – | – | – | – | – | – | – | – | – | – | – | – | – | – | – | – | – | IC80 (Candida albicans): 0.82 µM; IC80 (Candida tropicalis): 1.6 µM; IC80 (Pichia kudriavzevii): 105 µM; IC80 (Trichosporon asahii): 210 µM; IC50 (Aspergillus fumigatus): > 500 µM; IC50 (Lichtheimia corymbifera): > 500 µM; IC50 [19]: 105 µM |
| O=[N+]([O-])c1cc(C[S+]([O-])c2nnnn2C2CCCCC2)cc([N+](=O)[O-])c1 (stereo not drawn) | 62 | 84 | 42 | 52 | > 30 | > 30 | > 30 | 23 | 8 (≈ 3.04 µg/mL) | 16 (≈ 6.09 µg/mL) | 125 (≈ 47.5 µg/mL) | 125 (≈ 47.5 µg/mL) | 4 (≈ 1.52 µg/mL) | 16 (≈ 6.09 µg/mL) | 62 (≈ 23.6 µg/mL) | 4 (≈ 1.52 µg/mL) | 16 (≈ 6.09 µg/mL) | 32 (≈ 12.2 µg/mL) | – |
